The target of assay [1] is T1, Purine nucleoside phosphorylase (Homo sapiens, UniProt P00491).
T1 sequence (P00491 whole entry): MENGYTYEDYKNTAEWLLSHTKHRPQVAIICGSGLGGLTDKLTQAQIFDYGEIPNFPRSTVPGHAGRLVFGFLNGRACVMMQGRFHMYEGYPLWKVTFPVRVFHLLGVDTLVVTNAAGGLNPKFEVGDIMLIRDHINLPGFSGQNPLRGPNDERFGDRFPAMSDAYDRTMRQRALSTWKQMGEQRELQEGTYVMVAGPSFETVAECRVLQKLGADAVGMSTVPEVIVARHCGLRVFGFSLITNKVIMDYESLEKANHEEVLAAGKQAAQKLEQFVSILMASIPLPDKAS
Description: Inhibition of human erythrocyte purine nucleoside phosphorylase (PNPase) in the presence of ethylenediaminetetraacetic acid (Na2 EDTA).

For assay [2], the target named is T1, Purine nucleoside phosphorylase. Briefly: Inhibition of human erythrocyte purine nucleoside phosphorylase (PNPase) in the presence of zinc chloride.

pKi: −log10 of the molar value.

The pKi is −log10 of the Ki, conventionally taken in molar units. As for `CCOP(=O)(O)CP(=O)(O)CCCCCn1cnc2c(O)nc(N)nc21`, the results for the pKi in assay [1] and in assay [2] were 4.85 and 5.96, respectively.
On the same counts, the results for `Nc1nc(O)c2ncn(CCCCP(=O)(O)CP(=O)(O)O)c2n1` are 5.85 and 7.00.
On to `O=c1[nH]c(=O)c2ncn(CCCCCP(=O)(O)CP(=O)(O)O)c2[nH]1`, for which the results for the pKi in assay [1] and in assay [2] were 3.57 and 5.85, respectively.
For `Nc1nc(O)c2ncn(CCCCCCCP(=O)(O)CP(=O)(O)O)c2n1`, the values for the pKi in assay [1] and in assay [2] were 5.96 and 8.00, respectively.
Regarding `Nc1nc(O)c2ncn(CCCCCCP(=O)(O)CP(=O)(O)O)c2n1`, the pKi in assay [1] is 6.41; in assay [2] it was 8.43.

Values taken from ChEMBL document CHEMBL1128258, “[[(Guaninylalkyl)phosphinico]methyl]phosphonic acids. Multisubstrate analogue inhibitors of human erythrocyte purine nucleoside phosphorylase” (J Med Chem, 1995).
